This passage reports inhibition of growth results from patent US11155517B2, “4-substituted phenylamine derivatives and their use to protect crops by fighting undesired phytopathogenic micoorganisms” (PI INDUSTRIES LTD., priority 2016, dated 2021).

What all share (type): cell-based
Assay [1] deals with Pyricularia oryzae. The assay is described as follows: microbe, parasite or virus in culture. Particulars: 168 h, read-out: % control compared to the untreated check (radial growth).
The subject of assay [2] is Rhizoctonia solani. The assay is described as follows: Rhizoctonia solani (rice sheath blight/potato black scurf) in vitro test, radial growth on Potato Dextrose Agar. The settings on record: 168 h, 300 ppm, seven days, 25° C., read-out: % control compared to the untreated check (radial growth).
Assay [3] deals with Botrytis cinerea. The experiment in a line: Botrytis cinerea (gray mold) in vitro test, radial growth on Potato Dextrose Agar. Particulars: 168 h, 300 ppm, seven days, 22° C., read-out: % (control) compared to the untreated check (radial growth).
Assay [4] deals with Alternaria solani. The assay is described as follows: Alternaria solani (early blight of tomato/potato) in vitro test, radial growth on Potato Dextrose Agar. The settings on record: 168 h, 300 ppm, seven days, 25° C., read-out: % control compared to the untreated check (radial growth).
The subject of assay [5] is Colletotrichum capsici. The experiment in a line: Colletotrichum capsici (anthracnose) in vitro test, radial growth on Potato Dextrose Agar. The settings on record: Colletotrichum truncatum, 168 h; 300 ppm; seven days, 25° C.; read-out: % control compared to the untreated check (radial growth).
Assay [6] deals with Septoria lycopersici. The experiment in a line: Septoria lycopersici (leaf spot of tomato) in vitro test, radial growth on Potato Dextrose Agar. Particulars: 168 h, seven days, 25° C., read-out: % control compared to the untreated check (radial growth).
Assay [7] has as its system Fusarium culmorum. The assay is described as follows: Fusarium culmorum (foot rot of cereals) in vitro test, radial growth on Potato Dextrose Agar. The settings on record: Fusarium culmorum, 168 h, read-out: % control compared to the untreated check (radial growth).

On to `CCN(C)C=Nc1cc(C)c(Cc2ccc(C)cc2)cc1C1CC1` [Compound 222, N′-(2-cyclopropyl-5-methyl-4-(4-methylbenzyl)phenyl)-N-ethyl-N-methylformimidamide], for which the inhibition of growth at 300 ppm was more than 75% in assay [1]; more than 80% in assay [2]; more than 80% in assay [3]; more than 75% in assay [4]; more than 80% in assay [5]; more than 70% in assay [6]. Also, the inhibition of growth at 300 ppm in assay [7] turned out to be 75%.
As to `CCN(C)C=Nc1cc(C)c(Cc2cccc(Cl)c2F)cc1C` [Compound 118, N′-(4-(3-chloro-2-fluorobenzyl)-2,5-dimethylphenyl)-N-ethyl-N-methylformimidamide], the inhibition of growth at 300 ppm in assay [1] was more than 75%; in assay [2], more than 80%; in assay [3] it was more than 80%; in assay [4] it was more than 75%; in assay [5] it was more than 80%; in assay [6] it was more than 70%. The inhibition of growth at 300 ppm in assay [7] is 75%.
Consider `CCN(C)C=Nc1cc(C)c(Cc2cc(F)cc(F)c2)cc1Cl` [Compound 129, N′-(2-chloro-4-(3,5-difluorobenzyl)-5-methylphenyl)-N-ethyl-N-methylformimidamide], for which the inhibition of growth at 300 ppm in assay [1] was more than 75%; in assay [2] it was more than 80%; in assay [3], more than 80%; in assay [4], more than 75%; in assay [5], more than 80%; in assay [6], more than 70%. Besides, the inhibition of growth at 300 ppm in assay [7] was 75%.
Consider `CCN(C)C=Nc1cc(C)c(Cc2ccccc2F)cc1F` [Compound 214, N-ethyl-N′-(2-fluoro-4-(2-fluorobenzyl)-5-methylphenyl)-N-methylformimidamide], for which the inhibition of growth at 300 ppm in assay [1] was more than 75%; in assay [2], more than 80%; in assay [3] it was more than 80%; in assay [4], more than 75%; in assay [5] it was more than 80%; in assay [6] it was more than 70%. In addition, in assay [7], the inhibition of growth at 300 ppm came out at 75%.
As to `CCN(C)C=Nc1cc(Cl)c(Cc2ccc(C)cc2)cc1C` [Compound 261, N′-(5-chloro-2-methyl-4-(4-methylbenzyl)phenyl)-N-ethyl-N-methylformimidamide], the inhibition of growth at 300 ppm in assay [1] is more than 75%; in assay [2], more than 80%; in assay [3], more than 80%; in assay [4], more than 75%; in assay [5], more than 80%; in assay [6], more than 70%. Also, the inhibition of growth at 300 ppm in assay [7] is 75%.
Consider `Cc1cc(N=CN(C)C(C)C)c(C)cc1Cc1ccccc1Cl` [Compound 82, N′-(4-(2-chlorobenzyl)-2,5-dimethylphenyl)-N-isopropyl-N-methylformimidamide], for which the inhibition of growth at 300 ppm in assay [1] is more than 75%; in assay [2], more than 80%; in assay [3], more than 80%; in assay [4] it was more than 75%; in assay [5], more than 80%; in assay [6] it was more than 70%. In assay [7], the inhibition of growth at 300 ppm amounted to 75%.
As for `Cc1cc(N=CNC(C)C)c(C)cc1Cc1ccccc1F` [Compound 66, N′-(4-(2-fluorobenzyl)-2,5-dimethylphenyl)-N-isopropylformimidamide], the inhibition of growth at 300 ppm is more than 75% in assay [1]; more than 80% in assay [2]; more than 80% in assay [3]; more than 75% in assay [4]; more than 80% in assay [5]; more than 70% in assay [6]. Moreover, the inhibition of growth at 300 ppm in assay [7] is 75%.
As for `CCN(C)C=Nc1cc(C)c(Cc2ccccc2Br)cc1C` [Compound 154, N′-(4-(2-bromobenzyl)-2,5-dimethylphenyl)-N-ethyl-N-methylformimidamide], the inhibition of growth at 300 ppm in assay [1] is more than 75%; in assay [2], more than 80%; in assay [3], more than 80%; in assay [4] it was more than 75%; in assay [5], more than 80%; in assay [6], more than 70%. In addition, in assay [7], the inhibition of growth at 300 ppm worked out at 75%.
As to `CCN(C)C=Nc1cc(C)c(Cc2ccc(F)c(F)c2)cc1C` [Compound 146, N′-(4-(3,4-difluorobenzyl)-2,5-dimethylphenyl)-N-ethyl-N-methylformimidamide], the inhibition of growth at 300 ppm in assay [1] was more than 75%; in assay [2] it was more than 80%; in assay [3], more than 80%; in assay [4] it was more than 75%; in assay [5], more than 80%; in assay [6], more than 70%. Besides, in assay [7], the inhibition of growth at 300 ppm turned out to be 75%.
On to `CCN(C)C=Nc1cc(C)c(Cc2ccccc2F)cc1C1CC1` [Compound 221, N′-(2-cyclopropyl-4-(2-fluorobenzyl)-5-methylphenyl)-N-ethyl-N-methylformimidamide], for which the inhibition of growth at 300 ppm in assay [1] was more than 75%; in assay [2], more than 80%; in assay [3], more than 80%; in assay [4], more than 75%; in assay [5] it was more than 80%; in assay [6] it was more than 70%. In assay [7], the inhibition of growth at 300 ppm was found to be 75%.
`CCN(C)C=Nc1cc(F)c(Cc2cccc(C(F)(F)F)c2)cc1C` [Compound 196, N-ethyl-N′-(5-fluoro-2-methyl-4-(3-(trifluoromethyl)benzyl)phenyl)-N-methylformimidamide]: the inhibition of growth at 300 ppm in assay [1] was more than 75%; in assay [2], more than 80%; in assay [3], more than 80%; in assay [4], more than 75%; in assay [5], more than 80%; in assay [6], more than 70%. Besides, in assay [7], the inhibition of growth at 300 ppm turned out to be 75%.
For `CCN(C)C=Nc1cc(C)c(Cc2cc(F)cc(C(F)(F)F)c2)cc1C` [Compound 52, N-ethyl-N′-(4-(3-fluoro-5-(trifluoromethyl)benzyl)-2,5-dimethylphenyl)-N-methylformimidamide], the inhibition of growth at 300 ppm in assay [1] is more than 75%; in assay [2] it was more than 80%; in assay [3], more than 80%; in assay [4] it was more than 75%; in assay [5], more than 80%; in assay [6], more than 70%. Further, the inhibition of growth at 300 ppm in assay [7] is 75%.
Take `CCN(C)C=Nc1cc(Cl)c(Cc2ccccc2C)cc1C` [Compound 257, N′-(5-chloro-2-methyl-4-(2-methylbenzyl)phenyl)-N-ethyl-N-methylformimidamide]: the inhibition of growth at 300 ppm in assay [1] was more than 75%; in assay [2], more than 80%; in assay [3], more than 80%; in assay [4], more than 75%; in assay [5] it was more than 80%; in assay [6], more than 70%. Further, the inhibition of growth at 300 ppm in assay [7] came out at 75%.
